From paper PMC9388697 (Biometals : an international journal on the role of metal …, 2022) come the findings set out here.

The target of the test is Mar2 (Thermoanaerobacterium thermosaccharolyticum, UniProt D9TSN9, K173F/K351T). As to the kind of experiment: lactate racemase activity, L-lactate determined with Megazyme kit. The class given is biochemical. The following applies: 200 mM D-lactate; in vitro synthesized NPN; 35 °C; 30 min.

Regarding `C[C@@H](O)C(=O)O` [D-lactate], the “% of TtLarA activity” value is on record as “a small but substantial lactate racemase (Lar) activity was detected for the purified enzymes”.
